# In patent US4443436A, “C-20-Modified macrolide derivatives of the macrolide antibiotics tylosin, desmycosin, macrocin, and lactenocin” (Eli Lilly and Company, priority 1982, dated 1984):
# Like-named read-outs stand apart in the source and are kept apart here.
# Experiments:
# [1] = test system: Staphylococcus aureus X1.1; assay: MIC, standard agar-dilution assay, Staphylococcus aureus X1.1; type: cell-based
# [2] = test system: Staphylococcus aureus V41; assay: MIC, standard agar-dilution assay, Staphylococcus aureus V41; type: cell-based
# [3] = test system: Staphylococcus aureus X400; assay: MIC, standard agar-dilution assay, Staphylococcus aureus X400; type: cell-based
# [4] = test system: Staphylococcus aureus S13E; assay: MIC, standard agar-dilution assay, Staphylococcus aureus S13E; type: cell-based; conditions: Staphylococcus aureus, S13E
# [5] = test system: Staphylococcus epidermidis EPI1; assay: MIC, standard agar-dilution assay, Staphylococcus epidermidis EPI1; type: cell-based; conditions: Staphylococcus epidermidis, EPI1
# [6] = test system: Staphylococcus epidermidis EPI2; assay: MIC, standard agar-dilution assay, Staphylococcus epidermidis EPI2; type: cell-based; conditions: Staphylococcus epidermidis EPI2; agar dilution; read-out: MIC
# [7] = test system: Streptococcus pyogenes C203; assay: MIC, standard agar-dilution assay, Streptococcus pyogenes C203; type: cell-based
# [8] = test system: Streptococcus pneumoniae Park I; assay: microbe, parasite or virus in culture; type: cell-based
# [9] = test system: Streptococcus Group D X66; assay: MIC, standard agar-dilution assay, Streptococcus Group D X66; type: cell-based
# [10] = test system: Streptococcus Group 9960; assay: MIC, standard agar-dilution assay, Streptococcus Group 9960; type: cell-based; conditions: GROUP9960
# [11] = test system: Haemophilus influenzae Holt; assay: MIC, standard agar-dilution assay, Haemophilus influenzae Holt; type: cell-based
# [12] = test system: Haemophilus influenzae R252; assay: MIC, standard agar-dilution assay, Haemophilus influenzae R252; type: cell-based
# [13] = test system: Staphylococcus aureus; assay: MIC, broth-dilution microtiter test, Staphylococcus aureus; type: cell-based; conditions: broth-dilution microtiter, read-out: MIC
# Excerpt: (§1) The MIC's in Table X were obtained using conventional broth-dilution microtiter tests.
# [14] = test system: Streptococcus bovis 80; assay: MIC, broth-dilution microtiter test, Streptococcus bovis 80; type: cell-based; conditions: Streptococcus equinus; Streptococcus bovis 80; broth-dilution microtiter; read-out: MIC
# Excerpt: as §1
# [15] = test system: Pasteurella multocida 17E; assay: MIC, broth-dilution microtiter test, Pasteurella multocida 17E; type: cell-based; conditions: Pasteurella multocida 17E; bovine isolate; broth-dilution microtiter; read-out: MIC
# Excerpt: as §1
# [16] = test system: Pasteurella multocida 60A; assay: MIC, broth-dilution microtiter test, Pasteurella multocida 60A; type: cell-based; conditions: Pasteurella multocida 60A; avian isolate; broth-dilution microtiter; read-out: MIC
# Excerpt: as §1
# [17] = test system: Pasteurella hemolytica 22C; assay: MIC, broth-dilution microtiter test, Pasteurella hemolytica 22C; type: cell-based; conditions: Pasteurella hemolytica 22C; broth-dilution microtiter; read-out: MIC
# Excerpt: as §1
# [18] = test system: Mycoplasma gallisepticum; assay: MIC, broth-dilution microtiter test, Mycoplasma gallisepticum; type: cell-based; conditions: Mycoplasmoides gallisepticum; Mycoplasma gallisepticum; broth-dilution microtiter; read-out: MIC
# Excerpt: as §1
# [19] = test system: Mycoplasma synoviae; assay: MIC, broth-dilution microtiter test, Mycoplasma synoviae; type: cell-based; conditions: Mycoplasmopsis synoviae; Mycoplasma synoviae; broth-dilution microtiter; read-out: MIC
# Excerpt: as §1
# [20] = test system: Mycoplasma hyorhinis; assay: MIC, broth-dilution microtiter test, Mycoplasma hyorhinis; type: cell-based; conditions: Mycoplasma
# Excerpt: as §1
# [21] = test system: Mycoplasma hyopneumoniae; assay: MIC, broth-dilution microtiter test, Mycoplasma hyopneumoniae; type: cell-based; conditions: Mesomycoplasma hyopneumoniae; Mycoplasma hyopneumoniae; broth-dilution microtiter; read-out: MIC
# Excerpt: as §1
# [22] = test system: Streptococcus pyogenes C203; assay: In vivo protection of mice experimentally infected with S. pyogenes C203; conditions: Streptococcus pyogenes, mice, doses given 1 and 4 hours post-infection
# Description: The C-20 modified derivatives of this invention have shown in vivo antimicrobial activity against experimentally-induced infections in laboratory animals. When two doses of test compound were administered to mice experimentally infected with S. pyogenes C203, the activity observed was measured as an ED50 value [effective dose in mg/kg to protect 50% of the test animals: see Warren Wick, et al., J. Bacteriol. 81, 233-235 (1961)].
# [23] = test system: Pasteurella multocida; assay: Subcutaneous treatment of Pasteurella multocida-infected chicks; type: in vivo, one-day-old chicks; conditions: 30 mg/kg × 2, 1 and 4 hours post-challenge
# Description: Many of the C-20 modified derivatives of this invention have also shown in vivo antibacterial activity against infections induced by gram-negative bacteria. Tables XII and XIII summarize the results of tests in which illustrative compounds were evaluated against Pasteurella infection in one-day-old chicks. The compounds were administered parenterally or orally after challenge of the chicks with Pasteurella multocida (0.1 ml of a 10^-4 dilution of a twenty-hour tryptose broth culture of an avian P. multocida given subcutaneously). In these tests, unless indicated otherwise, all non-medicated infected chicks died within 24 hours of Pasteurella challenge. In the tests summarized in Table XII the compounds were administered by subcutaneous injection at a dosage of 30 mg/kg, 1 and 4 hours post-challenge of the chicks with P. multocida. In the test summarized in Table XIII the compounds were administered by gavage at 1 and 5 hours post-challenge of the chicks with P. multocida.
# [24] = test system: Mycoplasma gallisepticum; assay: Antimycoplasmal activity in chicks infected with Mycoplasma gallisepticum; type: in vivo, two- to three-day-old chicks; conditions: gavage five times, equivalent to 0.5 g/gal
# Description: In these tests infections were induced in chicks by injecting 0.2 ml of a broth culture of M. gallisepticum into the abdominal air sac of two- to three-day-old chicks. The compounds were administered by gavage five times at a dose equivalent to 0.5 g/gal (on the day of challenge once prior to and once following the challenge, two times on the next day and once on the third day). Twenty-one days post-infection, the chicks were weighed, a blood sample was taken, and the chicks were sacrificed. The presence or absence of air-sac lesions was recorded.
# [25] = test system: Pasteurella multocida; assay: Oral (gavage) treatment of Pasteurella multocida-infected chicks; type: in vivo, one-day-old chicks
# Procedure, shortened: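 One-day-old chicks challenged subcutaneously with 0.1 ml of a 10^-4 dilution of a 20-hour tryptose broth culture of avian P. multocida. Compounds given by subcutaneous injection at 30 mg/kg 1 and 4 hours post-challenge, or by oral gavage 1 and 5 hours post-challenge.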
# [26] = C203, sc, subcutaneous, read-out: ED50, Subcutaneous
# [27] = C203, oral, read-out: ED50, Oral
Structure (SMILES),MIC [4] [µg/mL],MIC [5] [µg/mL],MIC [6] [µg/mL],MIC [13] [µg/mL],MIC [14] [µg/mL],MIC [15] [µg/mL],MIC [16] [µg/mL],MIC [17] [µg/mL],MIC [18] [µg/mL],MIC [19] [µg/mL],MIC [20] [µg/mL],MIC [21] [µg/mL],"ED50 [22, 26] [mg/kg]","ED50 [22, 27] [mg/kg]",Number of Deaths/Number Treated [23],also measured
"CCC1OC(=O)CC(O)C(C)C(OC2OC(C)C(O)C(N(C)C)C2O)C(CCOC(=O)COc2ccccc2)CC(C)C(=O)C=CC(C)=CC1COC1OC(C)C(O)C(OC)C1OC (stereo not shown) [Compound 26, 20-DH-20-O-(Phenoxyacetyl)desmycosin]",0.25,0.25,0.12,0.39,1.56,6.25,6.25,12.5,< 0.05,1.56,50,0.78,2.4,> 25,8/10,"MIC ([1]; Staphylococcus aureus, X1.1): 0.25 µg/mL; MIC ([2]; Staphylococcus aureus, V41): 0.25 µg/mL; MIC ([3]; Staphylococcus aureus, X400): 0.5 µg/mL; MIC ([7]; Streptococcus pyogenes, C203): 0.12 µg/mL; MIC ([8]; Streptococcus pneumoniae Park I, agar dilution, read-out: MIC): 0.12 µg/mL; MIC [9]: 0.5 µg/mL; MIC [10]: 0.5 µg/mL; MIC ([11]; Haemophilus influenzae): 8 µg/mL; MIC ([12]; Haemophilus influenzae, R252): 8 µg/mL; Number with Antibodies/Number Tested ([24]; antibodies to M. gallisepticum, 21 days post-infection): 7/9; Mortality [24]: 1/10; Number with Air-Sac Lesions/Number Treated ([24]; 21 days post-infection): 5/10"
"CCC1OC(=O)CC(O)C(C)C(OC2OC(C)C(O)C(N(C)C)C2O)C(CCOC(C)=O)CC(C)C(=O)C=CC(C)=CC1COC1OC(C)C(O)C(OC)C1OC (stereo not shown) [Compound 29, 20-DH-20-O-Acetyldesmycosin]",0.25,0.25,0.12,0.78,0.78,12.5,25,25,0.39,1.56,50,12.5,3.4,36,5/10,"MIC ([1]; Staphylococcus aureus X1.1, agar dilution, read-out: MIC): 0.5 µg/mL; MIC ([2]; Staphylococcus aureus V41, penicillin-resistant strain, agar dilution, read-out: MIC): 0.5 µg/mL; MIC ([3]; Staphylococcus aureus X400, methicillin-resistant strain, agar dilution, read-out: MIC): 0.5 µg/mL; MIC ([7]; Streptococcus pyogenes C203, agar dilution, read-out: MIC): 2 µg/mL; MIC ([8]; Streptococcus pneumoniae): 0.25 µg/mL; MIC ([9]; Streptococcus Group D X66, agar dilution, read-out: MIC): 8 µg/mL; MIC ([11]; Haemophilus influenzae Holt, ampicillin-sensitive strain, read-out: MIC): 16 µg/mL; MIC ([12]; Haemophilus influenzae R252, ampicillin-resistant strain, read-out: MIC): 16 µg/mL; Number of Deaths/Number tested ([25]; 0.5 g/gal equivalent): 0/10; Number of Deaths/Number tested ([25]; 1.0 g/gal equivalent): 3/10"
